From US10975142B2, “Endotrophin neutralization and use thereof” (THE BOARD OF REGENTS OF THE UNIVERSITY OF TEXAS SYSTEM, priority 2013, dated 2021)

Test system: endotrophin+-tumors
Assay: allografts of Ctrl- and endotrophin+-cancer cells in wild-type hosts, TZD and cisplatin
Type: in vivo, mouse
Settings: cisplatin 1 mg/kg ip. every 5 days, TZD 20 mg/kg or ND
Description: FIGS. 21A-21F. TZD synergizes cisplatin sensitivity through suppression of endotrophin-mediated EMT, fibrosis and vasculature. FIGS. 21A-21B. Schematic diagram for allografts (FIG. 21A), indicating cancer cells (0.5×10^6 cells/mouse) were isolated from tumors in PyMT (Ctrl) and PyMT/endotrophin (ETP) mice and implanted into wild-type hosts. Host mice were given TZD (20 mg/kg) or ND diet at 10 days before implantation for tumor progression. Cisplatin (1 mg/kg, ip., every 5 days) was administered at 3-weeks post implantation. […] Data represent mean±SD (n=8-9/group). *p=0.05, **p=0.01 and ***p=0.001 Ctrl/ND vs. ETP/ND; ^##p=0.01 and ^###p=0.001 ETP/ND vs. ETP/TZD by unpaired student t-test. FIGS. 21C-21F. Histological analysis of tumors in allografts after cisplatin treatment. […] Vimentin staining quantification (FIG. 21D), showing decreased EMT in both Ctrl- and endotrophin^+-tumors by TZD. ***p<0.0001 and ^###p<0.0001. Quantification of perfused lectin staining (FIG. 21E), showing the increased functional blood vessels in endotrophin^+-tumors was decreased by TZD. *p=0.015, **p=0.001 and ^##p=0.0088. Masson's Trichrome C staining quantification (FIG. 21F), showing increased fibrosis in endotrophin^+-tumors was decreased by TZD. ***p<0.0001 and ^##p=0.0013. […] Statistics (*Ctrl/ND/CIS vs. Ctrl/TZD/CIS or ETP/ND/CIS; ^#ETP/ND/CIS vs. ETP/TZD/CIS) were analyzed by unpaired student t-test. […]

## N.N.[Cl][Pt][Cl] [cisplatin, cis-diammine-dichloro-platinum]
  tumor growth (volume) of endotrophin+-tumors: more resistant
